Assay results reported in patent publication US8138212B2, “Synergistic microbicidal compositions” (Rohm and Haas Company, priority 2009, dated 2012).
Like-named read-outs stand apart in the source and are kept apart here.

Key:
Assay type in all cases: cell-based
[1] = test system: Escherichia coli (E. coli—ATCC #8739); experiment: Synergy test, microtiter plate high resolution MIC assay, bacterium; conditions: E. coli 8739, M9GY medium; for MIC: Escherichia coli, read-out: QB: MIC of second component (B) acting alone
From the text: (§1) One skilled in the art will recognize that the sensitivity of other microorganisms to the particular combinations will vary and, as a result, the concentrations, the ratios, for each, or both, of the compounds may vary from those detailed in these examples. The concentrations and ratios may also vary under different test conditions or with different test methods. One measure of synergy is the industrially accepted method described by Kull, […]. and Mayer, R. L., in Applied Microbiology 9:538-541 (1961), using the ratio determined by the formula: Qa/QA+Qb/QB=Synergy Index (“SI”) wherein: • QA=concentration of compound A (first component) in ppm, acting alone, which produced an end point (MIC of Compound A). • Qa=concentration of compound A in ppm, in the mixture, which produced an end point. • QB=concentration of compound B (second component) in ppm, acting alone, which produced an end point (MIC of Compound B). • Qb=concentration of compound B in ppm, in the mixture, which produced an end point. When the sum of Qa/QA and Qb/QB is greater than one, antagonism is indicated. […] The lower the SI, the greater is the synergy shown by that particular mixture. The minimum inhibitory concentration (MIC) of a microbicide is the lowest concentration tested under a specific set of conditions that prevents the growth of the tested microorganisms. Synergy tests were conducted using standard microtiter plate assays with media designed for optimal growth of the test microorganism. Minimal salt medium supplemented with 0.2% glucose and 0.1% yeast extract ([…] medium) was used for testing bacteria; Potato Dextrose Broth (PDB medium) was used for testing yeast and mold. In this method, a wide range of combinations of microbicides and other personal care raw materials was tested by conducting high resolution MIC assays in the presence of various concentrations of MIT, or BIT. […] The synergy of the combinations of the present invention was determined against a bacterium, Escherichia coli (E. coli-ATCC #8739), and/or a yeast, Candida albicans (C. albicans-ATCC 10231), and/or a mold, Aspergillus niger (A. niger-ATCC 16404). The bacteria were used at a concentration of about 5×10^6 bacteria per mL and the yeast and mold at 5×10^5 fungi per mL. These microorganisms are representative of natural contaminants in many consumer and industrial applications. […] (yeast and mold) or 30° C. (bacteria). […] In each test, First Component (A) was MIT and the Second Component (B) was the other microbicide, formulation ingredient, or raw material.

[2] = test system: Candida albicans (C. albicans—ATCC 10231); experiment: Synergy test, microtiter plate high resolution MIC assay, yeast; conditions: for MIC: Candida albicans
From the text: as §1

[3] = test system: Aspergillus niger (A. niger—ATCC 16404); experiment: Synergy test, microtiter plate high resolution MIC assay, mold; conditions: for MIC: Aspergillus niger
From the text: as §1

[4] = C. albicans 10231, PDB medium, 1 day
[5] = C. albicans 10231, PDB medium, 2 days
[6] = C. albicans 10231, PDB medium, 3 days
[7] = A. niger 16404, PDB medium, 3 days
[8] = A. niger 16404, PDB medium, 6 days
[9] = A. niger 16404, PDB medium, 10 days
[10] = ATCC16404, 72 h, A. niger 16404, PDB medium, 3 days, read-out: QB: MIC of second component (B) acting alone
[11] = ATCC10231, 48 h, C. albicans 10231, PDB medium, 2 days, read-out: QB: MIC of second component (B) acting alone
[12] = ATCC10231, 24 h, C. albicans 10231, PDB medium, 1 day, read-out: QB: MIC of second component (B) acting alone
[13] = ATCC16404, 240 h, A. niger 16404, PDB medium, 10 days, read-out: QB: MIC of second component (B) acting alone

SMILES | MIC ([1]; ATCC8739, 24 h, 1 day) | MIC [2, 11] | SI (Synergy Index, Qa/QA+Qb/QB) ([1]; 1 day) | SI (Synergy Index, Qa/QA+Qb/QB) [2, 4] | SI (Synergy Index, Qa/QA+Qb/QB) [2, 5] | SI (Synergy Index, Qa/QA+Qb/QB) [2, 6] | SI (Synergy Index, Qa/QA+Qb/QB) [3, 7] | SI (Synergy Index, Qa/QA+Qb/QB) [3, 8] | SI (Synergy Index, Qa/QA+Qb/QB) [3, 9] | other results
O=c1[nH]sc2ccccc12 [BIT, 1,2-benzisothiazolin-3-one] |  |  | 1.00 | 1.00 | 1.00 | 1.00 | 1.00 | 1.00 | 1.00 | QA: MIC of first component (A) acting alone ([1]; 1 day): 15 ppm; QA: MIC of first component (A) acting alone ([1]; 2 days): 15 ppm; SI (Synergy Index, Qa/QA+Qb/QB) ([1]; 2 days): 1.00; QA: MIC of first component (A) acting alone ([1]; 3 days): 15 ppm; SI (Synergy Index, Qa/QA+Qb/QB) ([1]; 3 days): 1.00; QA: MIC of first component (A) acting alone [2, 4]: 20 ppm; QA: MIC of first component (A) acting alone [3, 8]: 20 ppm; QA: MIC of first component (A) acting alone [3, 9]: 20 ppm
O=C(O)CN(CCN(CC(=O)O)CC(=O)O)CCN(CC(=O)O)CC(=O)O [DTPA, diethylene triamine pentacetic acid] |  |  |  | 1.00 |  |  | 1.00 | 1.00 |  | QB: MIC of second component (B) acting alone [2, 4]: 2000 ppm; QB: MIC of second component (B) acting alone [3, 7]: 800 ppm; QB: MIC of second component (B) acting alone [3, 8]: 2000 ppm
O=C(O)CC(NC(CC(=O)O)C(=O)O)C(=O)O (stereo not shown) [IDS, iminodisuccinate] |  |  |  |  | 1.00 |  | 1.00 |  |  | QB: MIC of second component (B) acting alone [3, 7]: 5000 ppm
CC(C(=O)O)N(CC(=O)O)CC(=O)O (stereo not shown) [MDGA, methyl glycine diacetic acid] |  |  |  |  |  | 1.00 |  |  | 1.00 | 
Cn1sccc1=O [MIT, 2-methyl-4-isothiazolin-3-one] |  |  |  | 1.00 | 1.00 | 1.00 | 1.00 | 1.00 | 1.00 | MIC ([2]; ATCC10231, 24 h, read-out: QA: MIC of first component (A) acting alone): 200 µg/mL; MIC ([2]; ATCC10231, 48 h, read-out: QA: MIC of first component (A) acting alone): 200 µg/mL; MIC ([2]; ATCC10231, 72 h, read-out: QA: MIC of first component (A) acting alone): 200 µg/mL; QA: MIC of first component (A) acting alone [3, 7]: 200 ppm; MIC ([3]; ATCC16404, 72 h, read-out: QA: MIC of first component (A) acting alone, A. niger 16404, PDB medium, 3 days): 300 µg/mL; MIC ([3]; ATCC16404, 144 h, read-out: QA: MIC of first component (A) acting alone, A. niger 16404, PDB medium, 6 days): 300 µg/mL; MIC ([3]; ATCC16404, 240 h, read-out: QA: MIC of first component (A) acting alone, A. niger 16404, PDB medium, 10 days): 300 µg/mL
CC(O)COc1ccccc1 (stereo not shown) [phenoxypropanol, propylene glycol phenyl ether] |  |  |  |  |  | 1.00 | 1.00 |  |  | MIC ([2]; ATCC10231, 72 h, C. albicans 10231, PDB medium, 3 days, read-out: QB: MIC of second component (B) acting alone): 5000 µg/mL; MIC [3, 10]: 3000 µg/mL
O=P(O)(O)O[C@H]1[C@H](OP(=O)(O)O)[C@@H](OP(=O)(O)O)[C@H](OP(=O)(O)O)[C@@H](OP(=O)(O)O)[C@H]1OP(=O)(O)O [phytic acid, inositol hexaphosphoric acid] | 5000 µg/mL | 3000 µg/mL | 1.00 |  | 1.00 |  |  |  | 1.00 | MIC [3, 13]: 20000 µg/mL

Now from value to molecule, other results behind:

MIC ([1]; ATCC8739, 24 h, 1 day) | MIC [2, 11] | SMILES | SI (Synergy Index, Qa/QA+Qb/QB) ([1]; 1 day) | SI (Synergy Index, Qa/QA+Qb/QB) [2, 4] | SI (Synergy Index, Qa/QA+Qb/QB) [2, 5] | SI (Synergy Index, Qa/QA+Qb/QB) [2, 6] | SI (Synergy Index, Qa/QA+Qb/QB) [3, 7] | SI (Synergy Index, Qa/QA+Qb/QB) [3, 8] | SI (Synergy Index, Qa/QA+Qb/QB) [3, 9] | other results
8000 µg/mL |  | COc1ccc(C(=O)O)cc1 [anisic acid, 4-methoxybenzoic acid] | 1.00 |  |  |  | 1.00 |  |  | MIC [3, 10]: 2000 µg/mL
 | 2000 µg/mL | CCCCCCCCCC(=O)O [capric acid, decanoic acid] |  |  | 1.00 |  |  | 1.00 |  | SI (Synergy Index, Qa/QA+Qb/QB) ([1]; 3 days): 1.00; MIC ([1]; ATCC8739, 72 h, 3 days): 10000 µg/mL; MIC ([3]; ATCC16404, 144 h, A. niger 16404, PDB medium, 6 days, read-out: QB: MIC of second component (B) acting alone): 5000 µg/mL
 | 2000 µg/mL | CCCCCCCCC(O)CO (stereo not shown) [decylene glycol, 1,2-decanediol] |  | 1.00 | 1.00 |  | 1.00 |  |  | MIC [2, 12]: 2000 µg/mL; MIC [3, 10]: 2000 µg/mL
8000 µg/mL |  | O=C(O)/C=C\C(=O)O [maleic acid, 2-butenedioic acid] | 1.00 |  | 1.00 |  |  |  |  | 
5000 µg/mL | 2000 µg/mL | CCC(=O)O [propionic acid, ethanecarboxylic acid] | 1.00 | 1.00 | 1.00 |  |  |  | 1.00 | MIC [2, 12]: 2000 µg/mL; MIC [3, 13]: 500 µg/mL
